This is an account of results in article PMC7614687, “Modulation of the substrate specificity of the kinase PDK1 by distinct conformations of the full-length protein*” (Science signaling, 2023).

For experiment [1], the target named is T1, GST-PDK1_1-556 (Homo sapiens, UniProt O15530).
T1 construct: made in house; host or cells: HEK293 cells (transient transfection of pEBG2T); peptide synthesized by Pepscan
T1 sequence (O15530 1-556): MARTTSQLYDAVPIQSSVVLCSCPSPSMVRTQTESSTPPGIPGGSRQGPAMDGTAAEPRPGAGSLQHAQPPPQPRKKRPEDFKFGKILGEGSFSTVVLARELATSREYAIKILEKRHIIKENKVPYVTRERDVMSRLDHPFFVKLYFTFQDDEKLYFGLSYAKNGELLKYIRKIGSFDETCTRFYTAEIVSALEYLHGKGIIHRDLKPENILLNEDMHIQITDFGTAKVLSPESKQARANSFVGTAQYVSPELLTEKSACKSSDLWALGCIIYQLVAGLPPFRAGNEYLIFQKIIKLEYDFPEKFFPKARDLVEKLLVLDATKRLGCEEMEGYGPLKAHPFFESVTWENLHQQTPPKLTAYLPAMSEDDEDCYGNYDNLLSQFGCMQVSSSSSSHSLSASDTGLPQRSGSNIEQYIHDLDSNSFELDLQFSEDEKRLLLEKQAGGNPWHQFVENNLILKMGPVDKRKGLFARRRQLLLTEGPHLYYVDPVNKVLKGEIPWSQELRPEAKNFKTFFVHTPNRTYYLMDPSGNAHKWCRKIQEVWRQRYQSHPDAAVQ
Put plainly: AlphaScreen GST-PDK1_1-556 / biotin-PIFtide interaction. In kind it is binding. In general terms: Alpha assays give light when donor and acceptor beads are brought close together.

For experiment [2], the target named is T1, GST-PDK1_1-556. Put plainly: AlphaScreen biotin-GS-022 / GST-PDK1_1-556 interaction. In kind it is binding. From the text: 163 independent experiments. (F-G) Interaction and displacement of interactions using
164 AlphaScreen technlology. (F) Interaction of biotin-GS-022 with GST-PDK11-556 and GST-
165 PDK11-359. N=2 independent experiments. (G) Effect of HYG8 on the interaction between
166 biotin-GS-022 and GST-PDK11-556. N=2 independent experiments.
167 The Thermo Fisher Scientific “PDK1 Direct” assay produced results quite different from those
168 obtained using our PDK1 kinase assay which uses [γ32P]ATP and T308tide
169 ([…]) as substrates. Phosphorylation of T308tide and of the alternative
170 peptides GS-022 ([…]) and GS-023 ([…]-K(5-FAM)) was
171 compared. GS-023 and GS-022 were phosphorylated efficiently by GST-PDK11-556, with over
172 30 and 10-fold higher turnover than T308tide, respectively (fig. S2A). The increased
174 GS-023 peptide provided a degree of improvement of substrate phosphorylation by PDK11-
175 556. GST-PDK11-359, comprising only the catalytic domain but lacking the linker region and the
176 PH domain, phosphorylated the three substrates similarly, with a slight increased turnover
177 towards GS-023 (fig. S2B). Thus, the phosphorylation of GS-23 and GS-022, but not that of
178 T308tide, depended on the construct used (figs. S2C-E). To assess a possible differential […]
180 that measured the interaction of biotin-GS-022 with GST-PDK11-556 and GST-PDK11-359. […]

On to `O=C(O[C@H]1[C@@H](OP(=O)(O)O)[C@H](OP(=O)(O)O)[C@@H](OP(=O)(O)O)[C@H](OP(=O)(O)O)[C@H]1OP(=O)(O)O)c1ccccc1` [HYG8, 2-O-benzoyl-IP5], for which the EC50 on GST-PDK1_1-556 [1] (approximate, read-out: EC50, increase of GST-PDK1_1-556 binding to PIFtide) was around 2.4 nM. The “fold increase of binding of GST-PDK1_1-556 to PIFtide” value at GST-PDK1_1-556 [1] (different experiments) was 3-4 fold. For the same compound, the “effect on interaction between GS-022 and PDK1_1-556” value on GST-PDK1_1-556 [2] is on record as “potently”.

The term EC50 denotes the concentration giving half of the maximal effect.
